Where two headings read alike, the source gives them in different places.
How the values were obtained:
Human Nav1.8 = target: T1, Human Nav1.8 (Homo sapiens, UniProt Q9Y5Y9); test: VIPR assay for Nav1.8 (FRET membrane potential, deltamethrin as opener); assay type: cell-based; conditions: for IC50: HEK293 cells expressing human Nav1.8, average of replicates; for Selectivity Ratio: TTX-S IC50 / NaV1.8 IC50
T1 construct: expressed in transfected cells

[1] = tested on: tetrodotoxin-sensitive voltage-gated sodium channels including NaV1.2, NaV1.3 and NaV1.7 (SHSY-5Y cell line); test: TTX-S assay in SHSY-5Y cell line (VIPR procedure, veratridine as opener); assay type: cell-based; conditions: read-out: TTX-S IC50, SHSY-5Y cells, veratridine 50 μM, average of replicates
[2] = automated dissolution procedure

T1 sequence (Q9Y5Y9 whole entry): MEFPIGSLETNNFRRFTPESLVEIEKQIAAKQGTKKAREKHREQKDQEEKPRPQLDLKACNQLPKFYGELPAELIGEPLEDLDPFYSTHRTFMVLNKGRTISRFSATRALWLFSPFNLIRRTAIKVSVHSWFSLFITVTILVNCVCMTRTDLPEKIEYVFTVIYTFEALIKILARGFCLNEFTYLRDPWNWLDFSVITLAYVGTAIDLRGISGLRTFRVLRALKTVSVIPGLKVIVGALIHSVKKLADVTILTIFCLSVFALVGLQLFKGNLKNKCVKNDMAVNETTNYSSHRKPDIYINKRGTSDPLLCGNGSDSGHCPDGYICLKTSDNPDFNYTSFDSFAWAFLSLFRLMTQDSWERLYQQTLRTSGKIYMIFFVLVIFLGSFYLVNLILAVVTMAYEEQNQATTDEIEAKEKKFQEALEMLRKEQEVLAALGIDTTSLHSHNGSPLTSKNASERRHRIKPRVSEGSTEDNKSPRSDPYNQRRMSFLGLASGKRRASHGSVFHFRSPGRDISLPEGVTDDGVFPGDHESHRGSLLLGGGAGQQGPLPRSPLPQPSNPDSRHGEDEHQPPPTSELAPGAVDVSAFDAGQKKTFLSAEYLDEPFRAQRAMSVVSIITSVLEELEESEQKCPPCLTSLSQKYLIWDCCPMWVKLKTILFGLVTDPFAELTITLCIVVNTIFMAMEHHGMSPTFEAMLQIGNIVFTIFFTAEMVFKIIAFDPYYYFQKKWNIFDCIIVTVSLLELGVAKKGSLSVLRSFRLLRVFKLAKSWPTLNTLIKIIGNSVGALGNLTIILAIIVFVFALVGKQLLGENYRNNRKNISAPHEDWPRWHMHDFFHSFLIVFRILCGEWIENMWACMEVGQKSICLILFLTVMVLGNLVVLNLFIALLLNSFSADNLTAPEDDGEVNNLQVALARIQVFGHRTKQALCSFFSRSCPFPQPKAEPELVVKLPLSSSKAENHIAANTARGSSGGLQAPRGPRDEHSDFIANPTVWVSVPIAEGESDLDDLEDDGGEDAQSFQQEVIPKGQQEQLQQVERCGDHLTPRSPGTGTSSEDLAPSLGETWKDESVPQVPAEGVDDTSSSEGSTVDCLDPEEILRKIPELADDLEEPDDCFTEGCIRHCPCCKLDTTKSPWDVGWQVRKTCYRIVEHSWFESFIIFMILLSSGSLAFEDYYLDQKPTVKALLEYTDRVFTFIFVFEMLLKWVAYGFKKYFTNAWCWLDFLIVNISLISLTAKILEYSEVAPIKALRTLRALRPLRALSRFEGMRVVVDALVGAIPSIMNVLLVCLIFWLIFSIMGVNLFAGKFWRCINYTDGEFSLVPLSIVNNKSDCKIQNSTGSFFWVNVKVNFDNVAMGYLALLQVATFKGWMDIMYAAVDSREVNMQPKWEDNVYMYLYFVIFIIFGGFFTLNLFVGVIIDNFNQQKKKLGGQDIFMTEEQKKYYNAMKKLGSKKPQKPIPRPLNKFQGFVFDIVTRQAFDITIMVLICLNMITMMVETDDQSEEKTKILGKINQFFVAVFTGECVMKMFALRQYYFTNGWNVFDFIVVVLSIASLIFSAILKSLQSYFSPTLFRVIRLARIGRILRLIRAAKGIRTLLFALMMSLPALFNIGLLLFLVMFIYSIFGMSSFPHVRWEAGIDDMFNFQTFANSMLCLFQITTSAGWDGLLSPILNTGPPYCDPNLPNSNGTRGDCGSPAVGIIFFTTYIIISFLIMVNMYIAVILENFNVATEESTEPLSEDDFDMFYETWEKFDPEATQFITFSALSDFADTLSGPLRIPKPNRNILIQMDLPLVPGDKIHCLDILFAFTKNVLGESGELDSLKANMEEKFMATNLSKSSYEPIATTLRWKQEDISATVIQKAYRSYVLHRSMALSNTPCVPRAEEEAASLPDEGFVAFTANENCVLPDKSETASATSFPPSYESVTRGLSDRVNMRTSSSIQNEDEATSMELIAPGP

Row | Structure (SMILES) | IC50 (Human Nav1.8; [2]) [µM] | Selectivity Ratio (Human Nav1.8; [2]) | IC50 [1, 2] [µM] | IC50 (Human Nav1.8; manual dissolution procedure) [µM] | Selectivity Ratio (Human Nav1.8; manual dissolution procedure) | IC50 ([1]; manual dissolution procedure) [µM]
1 | Cc1nonc1C(=O)Nc1cnc(-c2cccc(Cl)c2Cl)c(N)n1 [Example 59, N-[6-amino-5-(2,3-dichlorophenyl)pyrazin-2-yl]-4-methyl-1,2,5-oxadiazole-3-carboxamide] | 7.23 | >3.58 | > 25.9 |  |  | 
2 | CC(C)c1oncc1C(=O)Nc1cnc(-c2ccccc2Cl)c(N)n1 [Example 51, N-[6-amino-5-(2-chlorophenyl)pyrazin-2-yl]-5-isopropylisoxazole-4-carboxamide] | 0.964 | >21.89 | > 21.1 |  |  | 
3 | Cc1nonc1C(=O)Nc1cnc(-c2cc(Cl)cc3c2OCCO3)c(N)n1 [Example 41, N-[6-amino-5-(7-chloro-2,3-dihydro-14-benzodioxin-5-yl)pyrazin-2-yl]-4-methyl-1,2,5-oxadiazole-3-carboxamide] | 12.7 | >2.22 | > 28.2 |  |  | 
4 | Cc1nocc1C(=O)Nc1cnc(-c2cccc3ccccc23)c(N)n1 [Example 19, N-[6-amino-5-(1-naphthyl)pyrazin-2-yl]-3-methylisoxazole-4-carboxamide] |  |  |  | 4.72 | >6.36 | > 30
5 | Cc1nocc1C(=O)Nc1cnc(-c2cc(Cl)ccc2Cl)c(N)n1 [Example 20, N-[6-amino-5-(2,5-dichlorophenyl)pyrazin-2-yl]-3-methylisoxazole-4-carboxamide] | 0.511 | 18.00 | 9.2 | 0.188 | 66.5 | 12.5
6 | Cc1nocc1C(=O)Nc1cnc(-c2cc(Cl)cc(Cl)c2Cl)c(N)n1 [Example 18, N-[6-amino-5-(2,3,5-trichlorophenyl)pyrazin-2-yl]-3-methylisoxazole-4-carboxamide] |  |  |  | 0.417 | >72.0 | > 30
7 | Cc1oncc1C(=O)Nc1cnc(-c2cc(Cl)cc(Cl)c2Cl)c(N)n1 [Example 14, N-[6-amino-5-(2,3,5-trichlorophenyl)pyrazin-2-yl]-5-methylisoxazole-4-carboxamide] | 1.36 | 10.8 | 14.7 | 0.276 | 12.7 | 3.49
8 | Cc1nonc1C(=O)Nc1cnc(-c2cccc3ccccc23)c(N)n1 [Example 44, N-[6-amino-5-(1-naphthyl)pyrazin-2-yl]-4-methyl-1,2,5-oxadiazole-3-carboxamide] | 16.5 | >1.67 | > 27.4 |  |  | 
9 | Cc1nonc1C(=O)Nc1cnc(-c2cc(Cl)ccc2Cl)c(N)n1 [Example 23, N-[6-amino-5-(2,5-dichlorophenyl)pyrazin-2-yl]-4-methyl-1,2,5-oxadiazole-3-carboxamide] | 8.04 | >3.54 | > 28.5 |  |  | 
10 | Cn1nccc1C(=O)Nc1cnc(-c2cccc(Cl)c2Cl)c(N)n1 [Example 5, N-[6-amino-5-(2,3-dichlorophenyl)pyrazin-2-yl]-1-methyl-1H-pyrazole-5-carboxamide] | 6.14 | ->4.28 | > 26.3 |  |  | 
11 | Cn1nccc1C(=O)Nc1cnc(-c2cc(Cl)ccc2Cl)c(N)n1 [Example 7, N-[6-amino-5-(2,5-dichlorophenyl)pyrazin-2-yl]-1-methyl-1H-pyrazole-5-carboxamide] | 3.8 | 5.40 | 20.5 | 3.98 | 3.79 | 15.1
